Laboratory results taken from paper PMC4979527, “Post-translational allosteric activation of the P2X7 receptor through glycosaminoglycan chains of CD44 proteoglycans” (Cell Death Discovery, 2015).
Entries after “also recorded” stand apart in the source; their conditions may differ.

Columns and labels:
P2X7 receptor [1] = biological target: T1, P2X7 receptor (Cricetulus griseus, UniProt A0A9J7FWH6); test: Cytoplasmic Ca2+ influx (Fluo-4, Flex Station 3) in wild-type CHO-K1 cells; format: cell-based, Chinese hamster; settings: for Increase of Ca2+cyt response by heparin pre-treatment: heparin pre-incubation 5 min (10-100 μM)
T1 sequence (A0A9J7FWH6 1-593): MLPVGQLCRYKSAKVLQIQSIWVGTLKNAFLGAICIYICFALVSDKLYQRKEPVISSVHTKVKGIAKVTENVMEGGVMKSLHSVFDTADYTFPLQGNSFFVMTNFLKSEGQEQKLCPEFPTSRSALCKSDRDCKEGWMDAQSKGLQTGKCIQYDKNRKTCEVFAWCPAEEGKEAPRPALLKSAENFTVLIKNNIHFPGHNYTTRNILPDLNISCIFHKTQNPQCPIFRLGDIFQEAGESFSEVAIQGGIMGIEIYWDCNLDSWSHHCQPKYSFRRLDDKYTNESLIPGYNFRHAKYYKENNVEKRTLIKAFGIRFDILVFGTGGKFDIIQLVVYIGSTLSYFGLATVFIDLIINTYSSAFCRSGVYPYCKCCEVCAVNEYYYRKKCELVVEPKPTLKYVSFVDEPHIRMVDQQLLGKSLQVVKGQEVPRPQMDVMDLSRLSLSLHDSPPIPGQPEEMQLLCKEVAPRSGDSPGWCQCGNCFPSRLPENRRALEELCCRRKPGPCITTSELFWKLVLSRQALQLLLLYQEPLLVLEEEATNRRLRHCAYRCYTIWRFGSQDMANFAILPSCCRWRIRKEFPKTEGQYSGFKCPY
Experimental: (§1) Cytoplasmic Ca^2+ influx, [Ca^2+]cyt, measurements were monitored through changes of the Fluo-4 fluorescence intensity in real time using the Flex Station 3 microplate reader system. CHO-K1 (●-●) and CHO-745 ([…]-[…]) cells were seeded onto black 96-well plates (10^4 cells/well). Then, the cells were incubated with Fluo-4 for 1 h at 37 °C. […] The data represent the mean±S.E.M. (N=6).
(§2) Subsequently, the cells were incubated with Fluo-4 Direct Calcium Assay reagent for 1 h at 37 °C, according to the manufacturer’s instructions. The samples were stimulated with different agonists, and the fluorescence was quantified using a Flex Station 3 microplate reader (Molecular Devices, Sunnyvale, CA, USA). The Fluo-4 was excited at 490 nm and the emission was detected at 525 nm.[57]

P2X7 receptor [2] = biological target: T1, P2X7 receptor; test: Cytoplasmic Ca2+ influx (Fluo-4, Flex Station 3) in mutant CHO-745 cells defective in GAGs; format: cell-based, Chinese hamster; settings: for Increase of Ca2+ response by heparin pre-treatment: heparin pre-incubation 5 min (10-100 μM)
Experimental: as §1, §2

CHO-K1 and CHO-745 cells = test: Cell viability (MTT) and cell death (annexin V-APC/7-AAD) assay; format: cell-based; settings: 24 h; for Morphology of CHO cultures (phase contrast microscopy): 4 mM ATP or 1 mM BzATP; for Cell death (MTT assay): high concentration (ATP >1 mM, BzATP >500 μM), both lines
Experimental: The viability of CHO cell lines was determined using the MTT assay.[58] […] The medium was removed, 100 μl of MTT (1 mg/ml) was added to each well and the cells were incubated again at 37 °C for 4 h. The supernatant was removed and 200 μl/well of DMSO was added to solubilize the formazan crystals formed. The absorbance was read at 570 nm using a microplate reader, and the cell viability was determined using the standard reduction of the MTT. The results were expressed relative to control cell viability (100%).
Cell death was investigated using annexin V-APC/7-AAD double staining and was analyzed through flow cytometry.[57],[59] […] The suspensions were transferred to tubes, centrifuged and resuspended with annexin V-APC and 7-AAD according to the manufacturer’s instructions. The cells were incubated at room temperature for 30 min, and the viable, apoptotic or necrotic cell populations were evaluated through flow cytometry. The data were collected using a FACSCalibur flow cytometer (Becton–Dickinson) and CellQuest software (Becton–Dickinson), followed by analysis using FlowJo software (Tree Star). […] The results were calculated as the percentage of cell death compared with the control.

P2 receptors = test: Cytoplasmic Ca2+ influx (Fluo-4) in CHO cells, both lines; format: cell-based, Chinese hamster; settings: for Intracellular Ca2+ increase on agonist addition: CHO cells, concentration-response curves; for Modulation of BzATP-stimulated Ca2+ influx by divalent cation: high concentration of cation (10 mM MgCl2; Cu2+ vs 100 μM BzATP), CHO-K1 and CHO-745
Experimental: as §1, §2

P2X7 receptor [3] = biological target: T1, P2X7 receptor; settings: 4 mM ATP
Experimental: P2X7 pore formation was functionality examined in CHO cells by analyzing PI uptake using a FACSCalibur flow cytometer (Becton–Dickinson). The cells were seeded onto six-well plates (10^6 cells/well) and maintained for 48 h at 37 °C under an atmosphere of 5% (v/v) CO2. Subsequently, the cells were harvested using 10 mM EDTA/PBS and adjusted to a concentration of 10^6 cells per tube. The samples were incubated with 5 μM of PI at a final volume of 200 μl/well in fresh serum-free medium F12 for 15 min, followed by the addition of 4 mM ATP and incubation at 37 °C for 30, 60 and 120 min, respectively. The intensity of dye uptake was immediately determined. A total of 10 000 events were collected for each sample.[60],[61]

[4] = CHO-K1, in presence of 10 mM Mg2+ (MgCl2)
[5] = CHO-745, in presence of 10 mM Mg2+ (MgCl2)

Q: For `Nc1ncnc2c1ncn2[C@@H]1O[C@H](COP(=O)(O)OP(=O)(O)OP(=O)(O)O)[C@@H](OC(=O)c2ccc(C(=O)c3ccccc3)cc2)[C@H]1O` (relative stereo) [BzATP+Mg^2+], which Emax (P2X7 receptor [1]; [4]) is on record?
A: 153±6 URF

Q: And the Hill coefficient (P2X7 receptor [1]; [4])?
A: 1.5±0.1

Q: What about the Emax (P2X7 receptor [2]; [5]) of the same molecule?
A: 119±10 URF

Q: What about the Hill coefficient (P2X7 receptor [2]; [5]) of the same molecule?
A: 2.8±0.3

Q: What does the source list for `Nc1ncnc2c1ncn2[C@@H]1O[C@H](COP(=O)(O)OP(=O)(O)OP(=O)(O)O)[C@@H](OC(=O)c2ccc(C(=O)c3ccccc3)cc2)[C@H]1O` (relative stereo) [BzATP, 2′(3′)-O-(4-benzoylbenzoyl)adenosine 5′-triphosphate]?
A: Emax (P2X7 receptor [1]; CHO-K1, Ca2+ influx): 275±8 URF; Hill coefficient (P2X7 receptor [1]; CHO-K1, Ca2+ influx): 1.0±0.1; Emax (P2X7 receptor [1]; [4]): 153±6 URF; Morphology of CHO cultures (phase contrast microscopy) (CHO-K1 and CHO-745 cells): increased morphological changes and cell detachment; Cell death (MTT assay) (CHO-K1 and CHO-745 cells): promoted cell death; Intracellular Ca2+ increase on agonist addition (P2 receptors): promoted Ca^2+ increase; Emax (P2X7 receptor [2]; CHO-745, Ca2+ influx): 136±6 URF; Hill coefficient (P2X7 receptor [2]; CHO-745, Ca2+ influx): 1.8±0.2; Emax (P2X7 receptor [2]; [5]): 119±10 URF; Hill coefficient (P2X7 receptor [2]; [5]): 2.8±0.3

Q: `CSc1nc(N)c2ncn([C@@H]3O[C@H](COP(=O)(O)OP(=O)(O)OP(=O)(O)O)[C@@H](O)[C@H]3O)c2n1` [2-MeSATP, 2-(methylthio)adenosine 5′-triphosphate] was tested. Which “Intracellular Ca2+ increase on agonist addition” value (from here on “Intracellular Ca2+ increase”) (P2 receptors) did it give?
A: did not increase intracellular Ca^2+

Q: Which “Intracellular Ca2+ increase” value (P2 receptors) does the source give for `Nc1ncnc2c1ncn2[C@@H]1O[C@H](COP(=O)(O)OP(=O)(O)O)[C@@H](O)[C@H]1O` [ADP, adenosine 5′-diphosphate] here?
A: promoted Ca^2+ increase

Q: What does the source list for `Nc1ncnc2c1ncn2[C@@H]1O[C@H](COP(=O)(O)OP(=O)(O)OP(=O)(O)O)[C@@H](O)[C@H]1O` [ATP, adenosine 5′-triphosphate]?
A: Emax (P2X7 receptor [1]; CHO-K1, Ca2+ influx): 258±10 URF; Hill coefficient (P2X7 receptor [1]; CHO-K1, Ca2+ influx): 0.9±0.1; Morphology of CHO cultures (phase contrast microscopy) (CHO-K1 and CHO-745 cells): increased morphological changes and cell detachment; Cell death (MTT assay) (CHO-K1 and CHO-745 cells): promoted cell death; Sensitivity to PI accumulation, CHO-745 less sensitive than CHO-K1 (P2X7 receptor [3]): 2.5 fold; Propidium iodide (PI) uptake (P2X7 receptor [3]; CHO cells, after 30 min at 37 °C): induced the time-dependent uptake of propidium iodide; Intracellular Ca2+ increase on agonist addition (P2 receptors): promoted Ca^2+ increase; Emax (P2X7 receptor [2]; CHO-745, Ca2+ influx): 97±7 URF; Hill coefficient (P2X7 receptor [2]; CHO-745, Ca2+ influx): 2.0±0.3

Q: With `[Cu+2]` [Cu^2+] as the molecule, how does the “Modulation of BzATP-stimulated Ca2+ influx by divalent cation” value (P2 receptors) read?
A: negatively modulated

Q: `[Mg+2]` [Mg^2+] was tested. Which “Modulation of BzATP-stimulated Ca2+ influx by divalent cation” value (P2 receptors) did it give?
A: negatively modulated

Q: For `O=c1ccn([C@@H]2O[C@H](COP(=O)(O)OP(=O)(O)O)[C@@H](O)[C@H]2O)c(=O)[nH]1` [UDP, uridine 5′-diphosphate], which “Intracellular Ca2+ increase” value (P2 receptors) is on record?
A: promoted Ca^2+ increase

Q: Which “Intracellular Ca2+ increase” value (P2 receptors) does the source give for `O=c1ccn([C@@H]2O[C@H](COP(=O)(O)OP(=O)(O)OP(=O)(O)O)[C@@H](O)[C@H]2O)c(=O)[nH]1` [UTP, uridine 5′-triphosphate] here?
A: promoted Ca^2+ increase

Q: How did the “Inhibition of total P2X7 agonist (ATP or BzATP) response” value (P2X7 receptor [1]; CHO-K1, pre-treatment 20 or 50 mM sodium chlorate, 24 h) turn out when `[Na+].[O-][Cl+2]([O-])[O-]` [chlorate, sodium chlorate] was run?
A: ~ 35%

Q: What about the “Effect on P2X7 agonist response” value (P2X7 receptor [2]; CHO-745, pre-treatment 20 or 50 mM sodium chlorate) of the same molecule?
A: did not block the P2X7 agonist response

Q: Which results are given for `Nc1ncnc2c1ncn2[C@@H](C=O)O[C@@H](C=O)COP(=O)(O)OP(=O)(O)OP(=O)(O)O` [oxATP, adenosine 5′-triphosphate periodate oxidized]?
A: Effect of antagonist on BzATP-evoked Ca2+ influx (P2X7 receptor [1]; CHO-K1, 300 μM oxATP, 100 μM BzATP): abolished the effect of BzATP; Effect of antagonist on BzATP-evoked Ca2+ influx (P2X7 receptor [2]; CHO-745, 300 μM oxATP, 100 μM BzATP): abolished the effect of BzATP

Q: Which “Inhibition of response induced through BzATP-gated P2X7” value (P2X7 receptor [1]; CHO-K1, 2 mM xyloside pre-treatment (120 h), 3 μM BzATP) does the source give for `O=[N+]([O-])c1ccccc1O[C@@H]1OC[C@@H](O)[C@H](O)[C@H]1O` [xylosides, o-nitrophenyl-β-D-xylopyranoside] here?
A: 82%

Q: And the “Inhibition of response induced through ATP-gated P2X7” value (P2X7 receptor [1]; CHO-K1, 2 mM xyloside pre-treatment (120 h), 10 μM ATP)?
A: 55%

Q: What about the “Effect on P2X7 agonist response” value (P2X7 receptor [2]; CHO-745, 2 mM xyloside pre-treatment) of the same molecule?
A: did not block the P2X7 agonist response

Q: With `Nc1ncnc2c1ncn2C1OC(COP(=O)(O)CP(=O)(O)OP(=O)(O)O)C(O)C1O` (stereo not drawn) [αβ-MeATP, α,β-methyleneadenosine 5′-triphosphate] as the molecule, how does the “Intracellular Ca2+ increase” value (P2 receptors) read?
A: did not increase intracellular Ca^2+

Q: For `Nc1ncnc2c1ncn2C1OC(COP(=O)(O)OP(=O)(O)CP(=O)(O)O)C(O)C1O` (stereo not drawn) [βγ-MeATP, β,γ-methyleneadenosine 5′-triphosphate], which “Intracellular Ca2+ increase” value (P2 receptors) is on record?
A: did not increase intracellular Ca^2+

Q: For heparin, which “Increase of Ca2+cyt response by heparin pre-treatment” value (P2X7 receptor [1]; CHO-K1, 10 μM ATP) is on record?
A: 120%

Q: And the “Potentiation of Ca2+ influx” value (P2X7 receptor [1]; CHO-K1, 100 μM heparin, 3 μM BzATP)?
A: 2.2 fold

Q: And the “Increase of Ca2+cyt response by heparin pre-treatment” value (P2X7 receptor [1]; CHO-K1, 1 mM ATP)?
A: 78%

Q: And the “Effect of heparin on Ca2+ influx at saturating agonist” value (P2 receptors; BzATP >100 μM or ATP >4 mM)?
A: induced no further increase in Ca^2+ influx

Q: And the “P2X7 stimulation by heparin alone” value (P2 receptors; absence of ATP or BzATP, highest heparin concentration)?
A: did not elicit P2X7 stimulation; also recorded: did not elicit discernible P2X7 activation

Q: And the “Increase of Ca2+ response by heparin pre-treatment” value (P2X7 receptor [2]; CHO-745, 10 μM ATP)?
A: 40%

Q: What about the “Increase of Ca2+ response by heparin pre-treatment” value (P2X7 receptor [2]; CHO-745, 1 mM ATP) of the same molecule?
A: 50%
